The assay concerns Type III protein secretion of the chimeric SopE‘-’Bla polypeptide (SPI1 type III protein secretion system). The assay is described as follows: Primary assay: Type III protein secretion of the chimeric SopE'-'Bla polypeptide by Salmonella enterica. The class given is cell-based. The conditions noted are these: read-out: SopE IC50(μM). The text has this: Primary assay: Type III protein secretion of the chimeric SopE‘-’Bla polypeptide by Salmonella enterica. This procedure is a cell-based assay that measures the type III-dependent secretion by Salmonella enterica of a plasmid-encoded chimeric polypeptide whose synthesis can be regulated, and which is endowed with an enzymatic activity that can be monitored colorimetrically by hydrolysis of a substrate that is unable to penetrate into the bacterial cytoplasm within the time constraints of the reaction. Thus, the colormetric reaction is not influenced by SopE‘-’Bla polypeptide in the bacterial cytplasm. Instead, it effectively measures the amount of polypeptide that has been secreted from the S. enterica cytoplasm to the extracellular medium via type III system protein secretion.
The SopE‘-’Bla recombinant polypeptide consists of two functionally distinct domains spliced together. The N-terminus domain is encoded by a polynucleotide region specifying the signal for type III secretion of the SopE polypeptide of S. enterica, an effector of the SPI1 type III protein secretion system. The C-terminus domain of SopE‘-’Bla consists of a 263 amino acid peptide sequence that corresponds to the TEM-1 β-lactamase expressed by plasmid pBR322 but without its N-terminal signal sequence. The TEM-1 β-lactamase part of the SopE‘-’Bla chimeric polypeptide is used as a reporter enzyme. It is capable of hydrolyzing nitrocefin resulting in a product whose accumulation can be monitored by colorimetric detection. The secretion of the SopE‘-’Bla chimeric polypeptide from the cytoplasm to the extracellular medium is dependent on type III protein secretion.
For this procedure, cells grown under conditions known to favor a functional SPI1 secretion system are induced for expression of the SopE‘-’Bla protein and grown either in the presence or in the absence of putative inhibitors for determined time. Nitrocefin is then added to the various cultures and its hydrolysis are used for quantitation. An inhibitor of Type III protein secretion is generally a compound that reduces the signal of the enzymatic reaction by decreasing the amount of SopE‘-’Bla secreted into the extracellular medium.
Usually IC50 stands for the concentration needed to halve the response being measured. For `O=C(NC(COCc1ccccc1)C(=O)O)/C(=C\c1cccc(Oc2ccc(Cl)cc2)c1)NC(=O)c1ccc(C(F)(F)F)cc1` (stereo in doubt) [Compound 31, (S)-3-Benzyloxy-2-[3-[3-(4-chlorophenoxy)phenyl]-2-(4-trifluoromethyl-benzoylamino)acryloylamino]propionic acid], the IC50 was found to be 7.7 µM.
For `COc1ccc(/C=C(/NC(=O)c2ccc(-c3ccccc3)cc2)C(=O)N[C@@H](Cc2ccc(Cl)cc2)C(=O)O)cc1OC` (stereo in doubt) [Compound 50, 2-[2-[(Biphenyl-4-carbonyl)amino]-3-(3,4-dimethoxyphenyl)acryloylamino]-3-(4-chlorophenyl)propionic acid] the value was 79.4 µM; for `O=C(O)[C@H](Cc1ccc(Cl)cc1)NC(=O)N(CCc1ccc(-c2ccccc2)cc1)Cc1ccc(Cl)c(Cl)c1` (stereo in doubt) [Compound 86, 2-[3-(2-Biphenyl-4-yl-ethyl)-3-(3,4-dichlorobenzyl)ureido]-3-(4-chlorophenyl)-propionic acid], 1.1 µM.
Regarding `O=C(NCC1CCCO1)/C(=C\c1ccc(-c2ccccc2)cc1)NC(=O)c1ccc(C(F)(F)F)cc1` (centres unmarked) [Compound 2, N-{2-Biphenyl-4-yl-1-[(tetrahydro-furan-2-yl-methyl)carbamyl]vinyl}-4-trifluoromethylbenzamide], the half-maximal inhibitory concentration (IC50) worked out at 69 µM.
The figure for `O=C(N[C@@H](CSCc1ccccc1)C(=O)O)/C(=C\c1cccc2ccccc12)NC(=O)c1ccc(C(F)(F)F)cc1` [Compound 3, (R)-3-Benzylsulfanyl-2-[3-naphthalen-1-yl-2-(4-trifluoromethylbenzoylamino)-acryloylamino]propionic acid] is 30.3 µM.
For `O=C(NC(Cc1ccc(Cl)cc1)C(=O)O)/C(=C\c1cccc(C(F)(F)F)c1)CC(=O)c1ccc(-c2ccccc2)cc1` (centres unmarked) [Compound 4, 2-[2-(2-Biphenyl-4-yl-2-oxoethyl)-3-(3-trifluoromethylphenyl)acryloylamino]-3-(4-chlorophenyl)propionic acid] the value was 1.1 µM; for `O=C(NC(Cc1ccc(Cl)cc1)C(=O)O)/C(=C\c1ccc(Cl)c(C(F)(F)F)c1)CC(=O)c1ccc(-c2ccccc2)cc1` (centres unmarked) [Compound 5, 2-[2-(2-Biphenyl-4-yl-2-oxoethyl)-3-(4-chloro-3-trifluoromethylphenyl)-acryloylamino]-3-(4-chlorophenyl)propionic acid], 0.8 µM; for `O=C(NN(Cc1ccc(-c2ccccc2)cc1)C(=O)N[C@@H](CSCc1ccccc1)C(=O)O)c1ccc(C(F)(F)F)cc1` [Compound 8, 4-Trifluoromethylbenzoic acid-N′-[(biphenyl-4-yl)methyl]-N′-[[[(2-benzylthio)-1-carboxyethyl]amino]carbonyl]hydrazide], 10 µM.
For `O=C(NN(Cc1cccc(Oc2ccccc2)c1)C(=O)N[C@@H](CSCc1ccccc1)C(=O)O)c1ccc(C(F)(F)F)cc1` [Compound 9, 4-Trifluoromethylbenzoic acid-N′-[(3-phenoxyphenyl)methyl]-N′-[[[(2-benzylthio)-1-carboxyethyl]amino]carbonyl]hydrazide] the value was 15 µM.
For `O=C(NN(Cc1cccc(Oc2ccccc2)c1)C(=O)N[C@@H](COCc1ccccc1)C(=O)O)c1ccc(C(F)(F)F)cc1` [Compound 10, 4-Trifluoromethylbenzoic acid-N′-[(3-phenoxyphenyl)methyl]-N′-[[[(2-benzyloxy)-1-carboxyethyl]amino]carbonyl]hydrazide], the IC50 came to 22 µM.
In the case of `O=C(NN(Cc1ccc(OC(F)(F)F)cc1)C(=O)N[C@@H](CSCc1ccccc1)C(=O)O)c1ccc(C(F)(F)F)cc1` [Compound 11, 4-Trifluoromethylbenzoic acid-N′-[(4-trifluoromethoxyphenyl)methyl]-N′-[[[(2-benzylthio)-1-carboxyethyl]amino]carbonyl]hydrazide], the half-inhibitory concentration (IC50) worked out at 49 µM.
For `O=C(NN(Cc1ccc(Oc2ccccc2)cc1)C(=O)N[C@@H](CSCc1ccccc1)C(=O)O)c1ccc(C(F)(F)F)cc1` [Compound 12, 4-Trifluoromethylbenzoic acid-N′-[(4-phenoxyphenyl)methyl]-N′-[[[(2-benzylthio)-1-carboxyethyl]amino]carbonyl]hydrazide] the value was 12.5 µM.
For `O=C(O)C[C@H](Cc1ccc(Cl)cc1)NC(=O)/C(=C\c1ccc(-c2ccccc2)cc1)NC(=O)c1ccc(C(F)(F)F)cc1` [Compound 13, (S)-3-[3-Biphenyl-4-yl-2-(4-trifluoromethylbenzoylamino)acryloylamino]-4-(4-chlorophenyl)butyric acid] the value was 5.2 µM; for `O=C(N[C@@H](COCc1ccccc1)C(=O)O)C(=Cc1ccc(Oc2ccccc2)cc1)NC(=O)c1ccc(C(F)(F)F)cc1` [Compound 15, (S)-3-Benzyloxy-2-[3-(4-phenoxyphenyl)-2-(4-trifluoromethylbenzoylamino)-acryloylamino]propionic acid], 11 µM; for `O=C(N[C@@H](Cc1ccc(Cl)cc1)C(=O)O)/C(=C\c1ccc(Oc2ccccc2)cc1)NC(=O)c1ccc(C(F)(F)F)cc1` [Compound 16, (S)-3-(4-Chlorophenyl)-2-[3-(4-phenoxyphenyl)-2-(4-trifluoromethylbenzoylamino)-acryloylamino]propionic acid], 4.9 µM.
For `O=C(N[C@H](COCc1ccccc1)C(=O)O)/C(=C\c1ccc(-c2ccccc2)cc1)NC(=O)c1ccc(C(F)(F)F)cc1` [Compound 24, (R)-3-Benzyloxy-2-[3-biphenyl-4-yl-2-(4-trifluoromethylbenzoylamino)-acryloylamino]propionic acid] the value was 12.5 µM.
Turning to `O=C(N[C@@H](Cc1ccc(Cl)cc1)C(=O)O)/C(=C\c1ccc(-c2ccccc2)cc1)NC(=O)c1ccc(C(F)(F)F)cc1` [Compound 25, (S)-2-[3-Biphenyl-4-yl-2-(4-trifluoromethylbenzoylamino)acryloylamino]-3-(4-chlorophenyl)propionic acid], the 50% inhibitory concentration (IC50) was 6 µM.
The figure for `O=C(N[C@@H](Cc1ccc(Cl)cc1)C(=O)O)/C(=C\c1cccc(C(F)(F)F)c1)NC(=O)c1ccc(Cl)cc1` [Compound 27, (S)-2-[2-(4-Chlorobenzoylamino)-3-(3-trifluoromethylphenyl)acryloylamino]-3-(4-chlorophenyl)propionic acid] is 87 µM; for `O=C(N[C@H](Cc1ccc(Cl)cc1)C(=O)O)/C(=C\c1cccc(C(F)(F)F)c1)NC(=O)c1ccc(Cl)cc1` [Compound 28, (R)-2-[2-(4-Chlorobenzoylamino)-3-(3-trifluoromethylphenyl)acryloylamino]-3-(4-chlorophenyl)propionic acid] it is 86 µM; for `O=C(N[C@@H](COCc1ccccc1)C(=O)O)/C(=C\c1ccc(Cl)c(Cl)c1)NC(=O)c1ccc(Cl)cc1` [Compound 29, (S)-3-Benzyloxy-2-[2-(4-chlorobenzoylamino)-3-(3,4-dichlorophenyl)-acryloylamino]propionic acid] it is 70 µM.
The figure for `CC(C)c1ccc(/C=C(/NC(=O)c2ccc(C(F)(F)F)cc2)C(=O)N[C@@H](COCc2ccccc2)C(=O)O)cc1` [Compound 32, (S)-3-Benzyloxy-2-[3-(4-isopropylphenyl)-2-(4-trifluoromethylbenzoylamino)-acryloylamino]propionic acid] is 34.8 µM; for `O=C(N[C@H](Cc1ccc(Cl)cc1)C(=O)O)/C(=C\c1cccc(C(F)(F)F)c1)NC(=O)c1ccc(OC(F)(F)F)cc1` [Compound 36, (R)-3-(4-Chlorophenyl)-2-[2-(4-trifluoromethoxybenzoylamino)-3-(3-trifluoromethylphenyl)acryloylamino]propionic acid] it is 21.6 µM.
As to `O=C(N[C@@H](Cc1ccc(Cl)cc1)C(=O)O)/C(=C\c1cccc(C(F)(F)F)c1)NC(=O)c1ccc(OC(F)(F)F)cc1` [Compound 37, (S)-3-(4-Chlorophenyl)-2-[2-(4-trifluoromethoxybenzoylamino)-3-(3-trifluoromethylphenyl)acryloylamino]propionic acid], the half-maximal inhibitory concentration (IC50) was found to be 25 µM.
Consider `O=C(N[C@@H](CSCc1ccccc1)C(=O)O)/C(=C\c1ccc(Br)cc1)NC(=O)c1ccc(C(F)(F)F)cc1` [Compound 41, (R)-3-Benzylsulfanyl-2-[3-(4-bromophenyl)-2-(4-trifluoromethylbenzoylamino)-acryloylamino]propionic acid], for which the IC50 turned out to be 48 µM.
The figure for `CN(C(=O)/C(=C\c1cccc(C(F)(F)F)c1)NC(=O)c1ccc(-c2ccccc2)cc1)[C@H](Cc1ccc(Cl)cc1)C(=O)O` [Compound 42, (R)-2-{[2-[(Biphenyl-4-carbonyl)amino]-3-(3-trifluoromethylphenyl)acryloyl]-methylamino}-3-(4-chlorophenyl)propionic acid] is 15 µM; for `O=C(N[C@@H](CSCc1ccccc1)C(=O)O)/C(=C\c1cccc(Oc2ccccc2)c1)NC(=O)c1ccc(Cl)cc1` [Compound 43, (R)-3-Benzylsulfanyl-2-[2-(4-chlorobenzoylamino)-3-(3-phenoxyphenyl)-acryloylamino]propionic acid] it is 34.2 µM.

Source of the values: patent publication US20050250819A1 (priority 2004, published 2005).
